# Test results as given in patent publication US10919908B2, “Thienopyrimidinone derivative and application thereof in preparing anticancer drug” (Henan Genuine Biotech Co., Ltd., priority 2017, dated 2021).
# Columns and labels:
# [1] = test system: Multiple myeloma tumor cells (H929); assay: In vitro cytotoxicity, MTT assay, 48 hours exposure; type: cell-based; conditions: Homo sapiens, NCI-H929, MTT cell viability
# Method: Multiple myeloma tumor cells (H929) were used for toxicity studies, and the cells were distributed in microtiter plates and exposed to the compounds tested for 48 hours.
# Mcl-1 protein = Mcl-1 protein (Homo sapiens, UniProt Q07820); assay: Inhibition of Mcl-1 activity by fluorescence polarization (FP) competition with a fluorescein-labeled ligand; type: binding; conditions: 10 nM Mcl-1 protein, 10 nM labeled ligand, 2 hours at room temperature
# Chain of Mcl-1 protein (Q07820 whole entry): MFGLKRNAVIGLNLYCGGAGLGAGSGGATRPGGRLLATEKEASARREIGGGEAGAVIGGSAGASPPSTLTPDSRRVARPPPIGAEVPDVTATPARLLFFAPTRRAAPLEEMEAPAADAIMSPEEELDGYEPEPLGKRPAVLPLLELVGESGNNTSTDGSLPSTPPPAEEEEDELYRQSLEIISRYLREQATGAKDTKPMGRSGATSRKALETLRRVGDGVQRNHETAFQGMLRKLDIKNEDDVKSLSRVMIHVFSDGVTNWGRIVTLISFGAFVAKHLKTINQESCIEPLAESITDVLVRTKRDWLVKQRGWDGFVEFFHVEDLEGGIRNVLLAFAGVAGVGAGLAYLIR
Compound,IC50 [1],IC50 (Mcl-1 protein)
"Cc1c(-c2c(-c3ccc(F)o3)sc3ncnc(O[C@H](Cc4ccccc4OCc4ccnn4CC(F)(F)F)C(=O)O)c23)ccc(OCCN2CCN(C)CC2)c1Cl [II, reference compound]",> 10 nM,–
Cc1c(-c2c(-c3ccc(F)o3)sc3ncnc(O[C@H](C(=O)O)C(F)(F)c4ccccc4OCc4ccnn4CC(F)(F)F)c23)ccc(OCCN2CCN(C)CC2)c1Cl [Compound 103],> 10 nM,1 to 10 nM
Cc1c(-c2c(-c3ccc(F)o3)sc3ncnc(O[C@@H](C(=O)O)C(F)(F)c4ccccc4OCc4ccnn4CC(F)(F)F)c23)ccc(OCCN2CCN(C)CC2)c1Cl [Compound 102],> 10 nM,< 1 nM
